Reference: patent publication EP4786465A1, “NOVEL COMPOUND, AND PHARMACEUTICAL COMPOSITION FOR PREVENTION OR TREATMENT OF CANCER OR TUMORS COMPRISING SAME” (Daewoong Pharmaceutical Co., Ltd., priority 2023, dated 2025)

How the values were obtained:
Type in all cases: cell-based
[1] = system: transcription factor TEAD; test: Activity inhibition test of transcription factor TEAD (ONE-Glo Luciferase assay, Hippo Pathway TEAD reporter-MCF7 recombinant cell line); details: Homo sapiens; TEAD Reporter-MCF7 cells, 24 hours treatment, luciferase luminescence
Protocol: The transcription factor TEAD activity of the compounds prepared in the Examples was measured by the ONE-Glo™ Luciferase assay (Promega, Catalog #E6110) method using the Hippo Pathway TEAD reporter-MCF7 recombinant cell line (BPS Bioscience, Catalog #60618). Specifically, the TEAD Reporter-MCF7 cell line contains the firefly luciferase gene whose expression is regulated under the control of TEAD response elements in the MCF7, which is a human breast cancer cell line. In the cell line, a non-phosphorylated YAP/TAZ exists in the nucleus in a non-stressed condition, which continuously induces expression of the luciferase reporter. TEAD Reporter-MCF7 cells were prepared in 100 µL of cell culture medium (MEM medium, 10% FBS, 1% P/S, 400 µg/mL Geneticin, 1% […], 1 mM NA pyruvate, 10 µg/mL Insulin) in a white clear bottom 96-well microplate. The prepared plate was incubated in a 5% CO2 incubator at 37°C for 24 hours, and then the previously prepared compounds of Examples were finally treated at concentrations of 0.0005, 0.005, 0.05, 0.5 and 5 µM, which were repeated three times for all treatment solutions. The plates treated with the compounds of Examples were incubated in a 5% CO2 incubator at 37°C for 24 hours. 100 µL/well of the substrate aqueous solution containing luciferin was added to a white clear-bottom 96 well microplate, thereby initiating an enzyme reaction. The reaction was performed at room temperature for 5 minutes, and the luminescence (integration time 1000 ms) was measured using a Flexstation3 multi-mode microplate reader. In accordance with the instructions for the ONE-Glo™ Luciferase Assay, the luciferase enzyme activity, which represents the activity of the transcription factor TEAD, was measured by a chemiluminescence method, and the inhibitory activity of the compound according to the present disclosure was calculated. The results of each compound were analyzed using Microsoft Excel, and the IC50 values were calculated by GraphPad Prism software.

NCI-H226 = test: Cell growth inhibition test (CellTiter-Glo Luminescent Cell Viability), NCI-H226; details: Homo sapiens; NCI-H226 cells, CellTiter-Glo; read-out: growth IC50 H226
Protocol: (§1) The cell growth for the compounds prepared in Examples was measured by CellTiter-Glo® Luminescednt Cell Viability (Promega, Catalog #G7571) method using NCI-H226 (addexbio), NCI-H28 (Korea Cell Line Bank) cell lines. This evaluation method is a method in which when luciferase enzyme is activated by ATP flowing out from living cells, it reacts with a luciferin substrate, and the enzyme activity at this time is measured to confirm cell viability.
(§2) Specifically, NCI-H226, and NCI-H28 cells were prepared in 100 µL of cell culture medium (RPMI medium, 10% FBS, 1% P/S, 4.5 g/L D-Glucose, 2.383 g/L HEPES Buffer, L-Glutamine, 1.5 g/L Sodium Bicarbonate, 110 mg/L Sodium pyruvate) in a white clear bottom 96-well microplate. The prepared plate was incubated in a 5% CO2 incubator at 37°C for 24 hours, and then the previously prepared compounds of Examples were finally treated at concentrations of 0.0005, 0.005, 0.05, 0.5 and 5 µM, which was repeated three times for all treatment solutions. The plates treated with the compounds of Examples were incubated in a 5% CO2 incubator at 37°C. 100 µL/well of the substrate aqueous solution containing luciferin was added to a white clear-bottom 96 well microplate, thereby initiating an enzyme reaction. The reaction was performed at room temperature in the dark for 10 minutes, and the luminescence was measured using a Flexstation3 multi-mode microplate reader. In accordance with the instructions for the CellTiter-Glo™ Luminescednt Cell Viability, the luciferase enzyme activity, which represents the amount of ATP, was measured by a chemiluminescence method, and the inhibitory activity of the compounds according to the present disclosure was calculated. The results of each compound were analyzed using Microsoft Excel, and the IC50 values were calculated using GraphPad Prism software.

NCI-H28 = test: Cell growth inhibition test (CellTiter-Glo Luminescent Cell Viability), NCI-H28; details: Homo sapiens; NCI-H28 cells, CellTiter-Glo; read-out: growth IC50 H28
Protocol: as §1, §2

Row | Structure (SMILES) | IC50 [1] [nM] | IC50 (NCI-H226) [nM] | IC50 (NCI-H28) [nM]
1 | C=CC(=O)N1CCc2c(ccc(Nc3cc(Cl)cc(Cl)c3)c2-c2cn(C)cn2)C1 [Example 21, 1-(6-((3,5-dichlorophenyl)amino)-5-(1-methyl-1H-imidazol-4-yl)-3,4-dihydroisoquinolin-2(1H)-yl)prop-2-en-1-one] | 90.2 | 95 | > 5000
2 | C=CC(=O)N1CCc2c(ccc(Nc3ccc(C(F)(F)F)cc3)c2-c2cn(CC)cn2)C1 [Example 24, 1-(5-(1-ethyl-1H-imidazol-4-yl)-6-((4-(trifluoromethyl)phenyl)amino)-3,4-dihydroisoquinolin-2(1H)-yl)prop-2-en-1-one] | 15.4 | 80 | > 5000
